Values of other authors, collected in patent US7378519B2, “Adduct of topiramate and tramadol hydrochloride and uses thereof” (Cilag GmbH International, priority 2002, dated 2008).
Counter-ions that a name gives are not always drawn.

System: Chung model of post-nerve constriction injury
Conditions: each drug alone, as the dose is escalated

Compound	MPE (Maximum Possible Effect) reached [% MPE]
CC1(C)O[C@@H]2[C@@H](CO[C@@]3(COS(N)(=O)=O)OC(C)(C)O[C@@H]23)O1 [topiramate, 2,3:4,5-bis-O-(1-methylethylidene)-β-D-fructopyranose sulfamate]	100
COc1cccc(C2(O)CCCCC2CN(C)C)c1 (single isomer, unassigned) [tramadol hydrochloride, (1R,2R or 1S,2S)-2-[(dimethylamino)methyl]-1-(3-methoxyphenyl)-cyclohexan-1-ol]	100
